Experimental data reported in US10537097B2, “Methods for treating red blood cells” (VIACELL, LLC., priority 2010, dated 2020).

Assays:
[1] = Solubility of nucleoside / concentrated composition; assay type: physicochemical; details: with L-arginine in an equimolecular solution; room temperature
stored RBCs = assay: 2,3-DPG level of stored RBCs after incubation with storage and/or rejuvenating composition (Roche 2,3-DPG kit); assay type: cell-based; details: 60 minutes at 37° C.
Protocol: A storage and/or rejuvenating composition that includes D-ribose, inosine, sodium pyruvate, and inorganic phosphate, all at a 300 mM concentration as a slurry was prepared. When used to store and/or rejuvenate RBCs, the slurry is diluted 30-fold to a final concentration of 10 mM to form a solution. […] In a study, RBCs were collected and stored for an average of 21 days at 4° C. according to standard blood banking practice. Various RBC storage and/or rejuvenating compositions were added to the 21-day old stored RBCs and held at 37° C. for one to four hours before being tested for 2,3-DPG concentrations. […] A normal 2,3-DPG concentration of RBC immediately upon harvest is 4.0 μmol/ml. […] An increase to 1.0 μmol/ml is considered a significant improvement.

OC[C@H]1O[C@@H](n2cnc3c(O)ncnc32)[C@H](O)[C@@H]1O [inosine]
Concentration at which inosine remained in solution [1]: above 50 mM

O=C[C@H](O)[C@H](O)[C@H](O)COP(=O)(O)O [ribose-5-phosphate]
Rejuvenation (stored RBCs; varying concentrations replacing inosine, with 10 mM each D-ribose, sodium pyruvate, inorganic phosphate): Rejuvenation was not observed

Nc1nc2c(ncn2[C@@H]2O[C@H](CO)[C@@H](O)[C@H]2O)c(=O)[nH]1 [Guanosine]
2,3-DPG (stored RBCs; 1 mM guanosine with 10 mM each inorganic phosphate and D-ribose, no sodium pyruvate): 0.47 µmol/mL
2,3-DPG (stored RBCs; 5 mM guanosine with 10 mM each inorganic phosphate and D-ribose, no sodium pyruvate): 1.30 µmol/mL
2,3-DPG (stored RBCs; 10 mM guanosine with 10 mM each inorganic phosphate and D-ribose, no sodium pyruvate): 1.10 µmol/mL
Rejuvenation (stored RBCs; guanosine at indicated concentration with 10 mM each inorganic phosphate and D-ribose, no sodium pyruvate): Rejuvenation was observed
